The source of these data is patent US11247990B1, “Bicyclic fused pyridine compounds as inhibitors of TAM kinases” (ARRAY BIOPHARMA INC., priority 2017, dated 2022).

His-tagged recombinant human AXL cytoplasmic domain, sequence (P30530 473-894): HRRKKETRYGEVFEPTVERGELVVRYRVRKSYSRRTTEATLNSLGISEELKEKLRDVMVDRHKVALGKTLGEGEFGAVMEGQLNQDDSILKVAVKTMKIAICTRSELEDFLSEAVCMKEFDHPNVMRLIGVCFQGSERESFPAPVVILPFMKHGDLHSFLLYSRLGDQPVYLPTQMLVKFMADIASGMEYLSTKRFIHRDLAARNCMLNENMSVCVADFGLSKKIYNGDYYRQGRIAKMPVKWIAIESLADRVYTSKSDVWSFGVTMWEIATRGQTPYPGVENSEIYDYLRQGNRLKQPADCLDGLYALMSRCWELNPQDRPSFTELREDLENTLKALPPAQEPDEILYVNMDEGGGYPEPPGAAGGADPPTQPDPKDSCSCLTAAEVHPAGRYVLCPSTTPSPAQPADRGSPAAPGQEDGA
GST-tagged recombinant human TYRO3 kinase domain, sequence (Q06418 518-790): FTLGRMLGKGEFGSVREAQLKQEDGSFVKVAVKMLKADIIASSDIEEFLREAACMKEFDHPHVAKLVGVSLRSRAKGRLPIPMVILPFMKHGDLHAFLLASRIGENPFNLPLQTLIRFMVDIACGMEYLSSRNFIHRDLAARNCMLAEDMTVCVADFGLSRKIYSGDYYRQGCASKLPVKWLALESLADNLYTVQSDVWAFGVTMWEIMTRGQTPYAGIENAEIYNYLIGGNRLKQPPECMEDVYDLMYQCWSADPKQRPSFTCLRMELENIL

The target in one experiment is His-tagged recombinant human AXL cytoplasmic domain (Homo sapiens (Human), UniProt P30530). Put plainly: AXL Enzyme Assay (LanthaScreen Eu Kinase Binding, TR-FRET). Conditions: averaged IC50. As to the method:
Compounds of Formula I were screened for their ability to inhibit AXL kinase using Invitrogen's LanthaScreen™ Eu Kinase Binding technology. […] After a 60-minute incubation at 22° C., the reaction was measured using a PerkinElmer EnVision multimode plate reader via TR-FRET dual wavelength detection, and the percent of control (POC) was calculated using a ratiometric emission factor. […] The POC values are fit to a 4 parameter logistic curve and the IC50 value is point where the curve crosses 50 POC.
With `Cn1cc(-c2nn([C@H]3CC[C@@H](Oc4ccccc4F)CC3)c3cc(NCCC4CC4)ncc23)cn1` [Example 402, N-(2-cyclopropylethyl)-1-((1s,4s)-4-(2-fluorophenoxy)cyclohexyl)-3-(1-methyl-1H-pyrazol-4-yl)-1H-pyrazolo[4,3-c]pyridin-6-amine], the concentration for half-maximal inhibition (IC50) was 1000 to 10000 nM.

In the case of `CCn1nc(O[C@H]2CC[C@@H](n3nc(-c4ccc(CN5CCN(C)CC5)cc4)c4cnc(NC)cc43)CC2)ccc1=O` [Example 79, 2-ethyl-6-(((1s,4s)-4-(6-(methylamino)-3-(4-((4-methylpiperazin-1-yl)methyl)phenyl)-1H-pyrazolo[4,3-c]pyridin-1-yl)cyclohexyl)oxy)pyridazin-3(2H)-one], the IC50 was less than 10 nM. Same read-out and setting: the result for `Cn1cc(-c2nn([C@H]3CC[C@@H](Oc4ncccc4C(F)(F)F)CC3)c3cc(Nc4ccccc4)ncc23)cn1` [Example 306, 3-(1-methyl-1H-pyrazol-4-yl)-N-phenyl-1-((1s,4s)-4-((3-(trifluoromethyl)pyridin-2-yl)oxy)cyclohexyl)-1H-pyrazolo[4,3-c]pyridin-6-amine] reads 1000 to 10000 nM.

A further experiment has as its target GST-tagged recombinant human TYRO3 kinase domain (Homo sapiens (Human), UniProt Q06418). Put plainly: TYRO3 Enzyme Assay (LanthaScreen Eu Kinase Binding, TR-FRET). Conditions: averaged IC50. As to the method: Compounds of Formula I were screened for their ability to inhibit TYRO3 kinase using Invitrogen's LanthaScreen™ Eu Kinase Binding technology. […] After a 60-minute incubation at 22° C., the reaction was measured using a PerkinElmer EnVision multimode plate reader via TR-FRET dual wavelength detection, and the percent of control (POC) calculated using a ratiometric emission factor. […] The POC values were fit to a 4 parameter logistic curve and the IC50 value is point where the curve crosses 50 POC.
For `CNc1cc2c(cn1)c(-c1cnn(C)c1)nn2[C@H]1CC[C@@H](Oc2ccc(=O)n(CCOC)n2)CC1` [Example 17, 2-(2-methoxyethyl)-6-(((1s,4s)-4-(3-(1-methyl-1H-pyrazol-4-yl)-6-(methylamino)-1H-pyrazolo[4,3-c]pyridin-1-yl)cyclohexyl)oxy)pyridazin-3(2H)-one], the IC50 was in the range of 1000 to 10000 nM. Same read-out and setting: the result for `CCCNc1cc2c(cn1)c(-c1cnn(C)c1)nn2[C@H]1CC[C@@H](Oc2ccccc2F)CC1` [Example 405, 1-((1s,4s)-4-(2-fluorophenoxy)cyclohexyl)-3-(1-methyl-1H-pyrazol-4-yl)-N-propyl-1H-pyrazolo[4,3-c]pyridin-6-amine] reads less than 10 nM; that for `CNc1cc2c(cn1)c(-c1cnn(C)c1)nn2[C@H]1CC[C@@H](Oc2ccc(OC)nn2)CC1` [Example 123, 1-((1s,4s)-4-((6-methoxypyridazin-3-yl)oxy)cyclohexyl)-N-methyl-3-(1-methyl-1H-pyrazol-4-yl)-1H-pyrazolo[4,3-c]pyridin-6-amine], 1000 to 10000 nM. The same measure, in the same setting: the result for `CNc1cc2c(cn1)c(-c1cnn(C)c1)nn2[C@H]1CC[C@@H](Oc2ccc(=O)[nH]n2)CC1` [Example 21, 6-(((1s,4s)-4-(3-(1-methyl-1H-pyrazol-4-yl)-6-(methylamino)-1H-pyrazolo[4,3-c]pyridin-1-yl)cyclohexyl)oxy)pyridazin-3(2H)-one] reads 1000 to 10000 nM; that for `CCNc1cc2c(cn1)c(-c1cnn(C)c1)nn2[C@H]1CC[C@@H](Oc2cnn(C)c2C)CC1` [Example 226, 1-((1s,4s)-4-((1,5-dimethyl-1H-pyrazol-4-yl)oxy)cyclohexyl)-N-ethyl-3-(1-methyl-1H-pyrazol-4-yl)-1H-pyrazolo[4,3-c]pyridin-6-amine], 1000 to 10000 nM. The same measure, in the same setting: the result for `CNc1cc2c(cn1)c(-c1cncc(C(F)(F)F)c1)nn2[C@H]1CC[C@@H](Oc2ccc(=O)n(C)n2)CC1` [Example 52, 2-methyl-6-(((1s,4s)-4-(6-(methylamino)-3-(5-(trifluoromethyl)pyridin-3-yl)-1H-pyrazolo[4,3-c]pyridin-1-yl)cyclohexyl)oxy)pyridazin-3(2H)-one] reads 1000 to 10000 nM; that for `CNc1cc2c(cn1)c(-c1cnn(C)c1)nn2[C@H]1CC[C@@H](Oc2ccc(C(=O)NC(C)C)cc2)CC1` [Example 458, N-isopropyl-4-(((1s,4s)-4-(3-(1-methyl-1H-pyrazol-4-yl)-6-(methylamino)-1H-pyrazolo[4,3-c]pyridin-1-yl)cyclohexyl)oxy)benzamide], 1000 to 10000 nM. With `CNc1cc2c(cn1)c(-c1cnn(C)c1)nn2[C@H]1CC[C@@H](Oc2ccc(OCc3ccccc3)nc2)CC1` [Example 131, 1-((1s,4s)-4-((6-(benzyloxy)pyridin-3-yl)oxy)cyclohexyl)-N-methyl-3-(1-methyl-1H-pyrazol-4-yl)-1H-pyrazolo[4,3-c]pyrdin-6-amine], the IC50 was 1000 to 10000 nM. Same read-out and setting: the result for `CNc1cc2c(cn1)c(-c1cnn(C)c1)nn2[C@H]1CC[C@@H](Oc2ccc(C#N)cn2)CC1` [Example 127, 6-(((1s,4s)-4-(3-(1-methyl-1H-pyrazol-4-yl)-6-(methylamino)-1H-pyrazolo[4,3-c]pyridin-1-yl)cyclohexyl)oxy)nicotinonitrile] reads 1000 to 10000 nM; that for `CNC(=O)c1ncccc1O[C@H]1CC[C@@H](n2nc(-c3cnn(C)c3)c3cnc(NC)cc32)CC1` [Example 276, N-methyl-3-(((1s,4s)-4-(3-(1-methyl-1H-pyrazol-4-yl)-6-(methylamino)-1H-pyrazolo[4,3-c]pyridin-1-yl)cyclohexyl)oxy)picolinamide], 1000 to 10000 nM.

Take `CNc1cc2c(cn1)c(-c1cnn(C)c1)nn2[C@H]1CC[C@@H](Oc2cccc(C(=O)N(C)C)c2)CC1` [Example 454]: the half-inhibitory concentration (IC50) lay in the range of 1000 to 10000 nM.

In the case of `CCNc1cc2c(cn1)c(C1CCCCC1)nn2[C@H]1CC[C@@H](Oc2nccc(C(F)(F)F)c2F)CC1` [Example 322, 3-cyclohexyl-N-ethyl-1-((1s,4s)-4-((3-fluoro-4-(trifluoromethyl)pyridin-2-yl)oxy)cyclohexyl)-1H-pyrazolo[4,3-c]pyridin-6-amine], the IC50 was in the range of 1000 to 10000 nM.

Regarding `CNc1cc2c(cn1)c(-c1ccc(F)cc1)nn2[C@H]1CC[C@@H](Oc2ccccn2)CC1` [Example 118, 3-(4-fluorophenyl)-N-methyl-1-((1s,4s)-4-(pyridin-2-yloxy)cyclohexyl)-1H-pyrazolo[4,3-c]pyridin-6-amine], the 50% inhibitory concentration (IC50) was in the range of 1000 to 10000 nM. For `CCNc1cc2c(cn1)c(C1CCCC1)nn2[C@H]1CC[C@@H](Oc2nccc(C(F)(F)F)c2F)CC1` [Example 321, 3-cyclopentyl-N-ethyl-1-((1s,4s)-4-((3-fluoro-4-(trifluoromethyl)pyridin-2-l)oxy)cyclohexyl)-1H-pyrazolo[4,3-c]pyridin-6-amine], the 50% inhibitory concentration (IC50) is 1000 to 10000 nM. Turning to `CNc1cc2c(cn1)c(-c1cnn(C)c1)nn2C1CCC(Oc2cc(N(C)C)cnn2)CC1` (stereo not drawn) [Example 154, 1-((1s,4s)-4-((5-(dimethylamino)pyridazin-3-yl)oxy)cyclohexyl)-N-methyl-3-(1-methyl-1H-pyrazol-4-yl)-1H-pyrazolo[4,3-c]pyridin-6-amine], the IC50 lay in the range of 1000 to 10000 nM. Same read-out and setting: under `CNc1cc2c(cn1)c(-c1cnc(N3CCOCC3)nc1)nn2[C@H]1CC[C@@H](Oc2ccc(=O)n(C)n2)CC1` [Example 51, 2-methyl-6-(((1s,4s)-4-(6-(methylamino)-3-(2-morpholinopyrimidin-5-yl)-1H-pyrazolo[4,3-c]pyridin-1-yl)cyclohexyl)oxy)pyridazin-3(2H)-one] stands 1000 to 10000 nM. Still for that read-out and setting: the result for `CNc1cc2c(cn1)c(-c1cnn(C)c1)nn2[C@H]1CC[C@@H](Oc2nc(C)ncc2OC)CC1` [Example 176, 1-((1s,4s)-4-((5-methoxy-2-methylpyrimidin-4-yl)oxy)cyclohexyl)-N-methyl-3-(1-methyl-1H-pyrazol-4-yl)-1H-pyrazolo[4,3-c]pyridin-6-amine] reads 1000 to 10000 nM.

For `CNc1cc2c(cn1)c(-c1cnn(C)c1)nn2[C@H]1CC[C@@H](Oc2cccc(OCC(F)(F)F)n2)CC1` [Example 302, N-methyl-3-(1-methyl-1H-pyrazol-4-yl)-1-((1s,4s)-4-((6-(2,2,2-trifluoroethoxy)pyridin-2-yl)oxy)cyclohexyl)-1H-pyrazolo[4,3-c]pyridin-6-amine], the half-inhibitory concentration (IC50) is 1000 to 10000 nM. On the same count and under the same terms, the result for `CCn1nc(O[C@H]2CC[C@@H](n3nc(-c4cnn(C)c4)c4cnc(NC)cc43)CC2)ccc1=O` [Example 14, 2-ethyl-6-(((1s,4s)-4-(3-(1-methyl-1H-pyrazol-4-yl)-6-(methylamino)-1H-pyrazolo[4,3-c]pyridin-1-yl)cyclohexyl)oxy)pyridazin-3(2H)-one] reads 1000 to 10000 nM; that for `CCNc1cc2c(cn1)c(-c1ccc(CN3CC(F)C3)cc1)nn2[C@H]1CC[C@@H](Oc2ccc(=O)n(C)n2)CC1` [Example 62, 6-(((1s,4s)-4-(6-(ethylamino)-3-(4-((3-fluoroazetidin-1-yl)methyl)phenyl)-1H-pyrazolo[4,3-c]pyridin-1-yl)cyclohexyl)oxy)-2-methylpyridazin-3(2H)-one], 1000 to 10000 nM; that for `Cn1cc(-c2nn([C@H]3CC[C@@H](Oc4cccnc4C(F)(F)F)CC3)c3cc(Nc4ccccc4)ncc23)cn1` [Example 304, 3-(1-methyl-1H-pyrazol-4-yl)-N-phenyl-1-((1s,4s)-4-((2-(trifluoromethyl)pyridin-3-yl)oxy)cyclohexyl)-1H-pyrazolo[4,3-c]pyridin-6-], less than 10 nM. The same measure, in the same setting: under `CNc1cc2c(cn1)c(-c1cnn(C)c1)nn2[C@H]1CC[C@@H](Oc2cccc(C(F)(F)F)n2)CC1` [Example 174, N-methyl-3-(1-methyl-1H-pyrazol-4-yl)-1-((1s,4s)-4-((6-(trifluoromethyl)pyridin-2-yl)oxy)cyclohexyl)-1H-pyrazolo[4,3-c]pyridin-6-amine] stands 1000 to 10000 nM; under `CNc1cc2c(cn1)c(-c1cnn(C)c1)nn2[C@H]1CC[C@@H](Oc2ccc(C(=O)NCCOC)cc2)CC1` [Example 459, N-(2-methoxyethyl)-4-(((1s,4s)-4-(3-(1-methyl-1H-pyrazol-4-yl)-6-(methylamino)-1H-pyrazolo[4,3-c]pyridin-1-yl)cyclohexyl)oxy)benzamide], 1000 to 10000 nM. The same measure, in the same setting: under `CNc1cc2c(cn1)c(-c1cnn(C)c1)nn2[C@H]1CC[C@@H](Oc2cc(=O)cnn2C)CC1` [Example 114, 1-methyl-6-(((1s,4s)-4-(3-(1-methyl-1H-pyrazol-4-yl)-6-(methylamino)-1H-pyrazolo[4,3-c]pyridin-1-yl)cyclohexyl)oxy)pyridazin-4(1H)-one] stands 1000 to 10000 nM.
